Measurements as given in the OligoGym collection.
After the bases stand the sugars from the 5' end (letter, count) and the backbone: PS all phosphorothioate, else s phosphorothioate and o phosphodiester by linkage. Methylation of C is not given here. e = 2'-O-(2-methoxyethyl) (MOE); k = constrained ethyl (cEt); d = 2'-deoxy (DNA)

Molecular target: APOL1
Conditions: ASO

| Sequence | target mRNA inhibition (A431, 2 µM) | target mRNA inhibition (A431, 0.0625 µM) | target mRNA inhibition (A431, 0.25 µM) | target mRNA inhibition (A431, 1 µM) | target mRNA inhibition (A431, 0.0156 µM) | target mRNA inhibition (A431, 0.04 µM) |
| --- | --- | --- | --- | --- | --- | --- |
| CACTTTATACCAGTGT (sugars kkddddkekekddddd, PS) | 14% | – | – | – | – | – |
| CAGATGTGTTTAGGCA (sugars k4 d9 k3, PS) | – | 78% | 93% | 96% | – | – |
| CAGCTATGGAAATGCC (sugars k4 d9 k3, PS) | – | 34% | 58% | 79% | – | – |
| CAGTCAGCAGGAGTAG (sugars k4 d9 k3, PS) | – | 30% | 54% | 65% | – | – |
| CAGTTTTGTAAGTGCA (sugars kdddddkekekddddd, PS) | 92% | 52% | 79% | 91% | 0% | – |
| CAGTTTTGTAAGTGCA (sugars kkddddkdkdkddddd, PS) | 95% | – | – | 95% | – | 41% |
| CATTCAGAATTTCCAC (sugars k3 d4 k3 e1 d5, PS) | 92% | 25% | 64% | 82% | 5% | – |
| CATTCAGAATTTCCAC (sugars kddddkekekeddddd, PS) | 58% | – | – | – | – | – |
| CATTCAGAATTTCCAC (sugars kekddddeekkddddd, PS) | 89% | – | – | – | – | – |
| CCGTCAATATATTCTT (sugars k2 d4 e3 k2 d5, PS) | 98% | 61% | 86% | 96% | 28% | 50% |
| CCTCATTGCAAATCCT (sugars k4 d9 k3, PS) | – | 54% | 84% | 96% | – | – |
| CCTTATGCTTACTCCA (sugars k4 d9 k3, PS) | – | 68% | 82% | 93% | – | – |
| CGCAATGCTGACTTGG (sugars kkdddddkekeddddd, PS) | 96% | 44% | 80% | 93% | 11% | – |
| CGCAATGCTGACTTGG (sugars kkddddekekeddddd, PS) | 94% | 48% | 80% | 93% | 22% | – |
| CGCAATGCTGACTTGG (sugars kkddddkekekkdddd, PS) | 60% | – | – | – | – | – |
| CGCAATGCTGACTTGG (sugars kkkddddkekekdddd, PS) | 68% | – | – | – | – | – |
| CGTCAATATATTCTTT (sugars kkddddekekeddddd, PS) | 90% | – | – | – | – | – |
| CGTGTTATATTTGATC (sugars kkddddekekeddddd, PS) | 76% | – | – | – | – | – |

| Sequence | target mRNA inhibition (A431, 2 µM) | target mRNA inhibition (A431, 0.0625 µM) | target mRNA inhibition (A431, 0.25 µM) | target mRNA inhibition (A431, 1 µM) | target mRNA inhibition (A431, 0.0156 µM) | target mRNA inhibition (A431, 0.04 µM) |
| --- | --- | --- | --- | --- | --- | --- |
| CTAATTTTCTGACTGT (sugars kkddddkdkdkddddd, PS) | 84% | – | – | – | – | – |
| CTAATTTTCTGACTGT (sugars kkddddkekekkdddd, PS) | 71% | – | – | – | – | – |
| CTATTAGAGGGCTAGT (sugars kddddkekekeddddd, PS) | 34% | – | – | – | – | – |
| CTCATTATCAGTCAGC (sugars k4 d9 k3, PS) | – | 57% | 65% | 64% | – | – |
| CTGAAGATTGGCTCTG (sugars kkddddkekekddddd, PS) | 45% | – | – | – | – | – |
| CTGAAGATTGGCTCTG (sugars kkkddddkekekdddd, PS) | 36% | – | – | – | – | – |
| CTGTGATGTGGGACTT (sugars k4 d9 k3, PS) | – | 50% | 76% | 89% | – | – |
| CTGTTCTAACTCTTGG (sugars kkddddekekeddddd, PS) | 97% | 64% | 83% | 92% | 43% | – |
| CTTTAAACTCAGGTGA (sugars k3 d4 k3 e1 d5, PS) | 59% | – | – | – | – | – |
| CTTTAAACTCAGGTGA (sugars kddddkekekeddddd, PS) | 70% | – | – | – | – | – |
| CTTTAAACTCAGGTGA (sugars kkddddkdkdkddddd, PS) | 89% | – | – | – | – | – |
| CTTTATACCAGTGTCT (sugars k3 d10 k3, PS) | – | 30% | 65% | 88% | – | – |
| CTTTATACCAGTGTCT (sugars kkddddkdkdkddddd, PS) | 92% | – | – | – | – | – |
| CTTTATACCAGTGTCT (sugars kkkddddkdkdkdddd, PS) | 87% | – | – | – | – | – |
| GAAATGAACGCAATGC (sugars k4 d9 k3, PS) | – | 42% | 71% | 87% | – | – |
| GAACGCAATGCTGACT (sugars k2 d4 e3 k2 d5, PS) | 95% | 42% | 77% | 92% | 20% | – |
| GAACGCAATGCTGACT (sugars k3 d10 k3, PS) | – | 14% | 50% | 76% | – | – |
